# pEC50, pIC50: −log10 of the molar value.
# How the values were obtained:
# TGFBR2 = target: T1, TGFBR2 (Homo sapiens, UniProt P37173); experiment: TGFBR2 RBC assay (enzyme inhibition assay, Reaction Biology Corp.); format: biochemical
# T1 construct: purchased Reaction Biology Corp
# Method: Compounds of the disclosure were also assayed by Reaction Biology Corp. using the TGFBR2 RBC assay (enzyme inhibition assay). […] NT refers to not tested.
# [1] = tested on: TGFβ/SMAD Signaling Pathway SBE reporter cell line; experiment: TGFβ reporter assay, in vitro small molecule screening (luciferase); format: cell-based; conditions: TGFβ stimulation, luminescence
# In short: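 SBE luciferase reporter cells (~0.5×10^6 cells/mL) preincubated with compound 5-6 h at 37 °C in 0.5% FBS MEM, then stimulated with TGFβ (12 ng/mL stock) for 18 h. Luminescence read after luciferase substrate; EC50 from curve fits.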
# T1 sequence (P37173 23-567): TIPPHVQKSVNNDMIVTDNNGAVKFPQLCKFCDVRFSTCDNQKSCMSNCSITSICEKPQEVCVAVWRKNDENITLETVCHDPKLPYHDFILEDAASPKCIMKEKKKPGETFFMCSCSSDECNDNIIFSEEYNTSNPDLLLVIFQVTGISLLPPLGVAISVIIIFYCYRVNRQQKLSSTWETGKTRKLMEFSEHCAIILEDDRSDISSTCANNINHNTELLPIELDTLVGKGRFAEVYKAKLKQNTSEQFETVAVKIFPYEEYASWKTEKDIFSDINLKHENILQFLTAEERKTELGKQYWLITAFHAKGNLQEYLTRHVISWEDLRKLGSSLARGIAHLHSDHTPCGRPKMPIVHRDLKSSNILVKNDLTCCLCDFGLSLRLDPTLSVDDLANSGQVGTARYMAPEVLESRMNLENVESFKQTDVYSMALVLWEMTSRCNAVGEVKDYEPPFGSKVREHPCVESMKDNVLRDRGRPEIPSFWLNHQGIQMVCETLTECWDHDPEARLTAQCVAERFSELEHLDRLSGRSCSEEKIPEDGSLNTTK
SMILES,pIC50 (TGFBR2),pEC50 [1]
Nc1ncc(-c2ccc(CCNC(=O)OCc3ccccc3)cc2)nc1C(=O)Nc1cnccc1-n1ccnc1 [Compound 137],> 7.30,< 6.00
Cc1nccn1-c1ccncc1NC(=O)c1nc(-c2ccc(CCN)cc2)cnc1N [Compound 138],> 7.30,< 6.00
CCc1nccn1-c1ccncc1NC(=O)c1nc(-c2ccc(CCNC(=O)OCc3ccccc3)cc2)cnc1N [Compound 141],> 7.30,< 6.00
CC(C)c1nccn1-c1ccncc1NC(=O)c1nc(-c2ccc(CCN)cc2)cnc1N [Compound 142],> 7.30,6.00 to 7.00
CC(C)c1nccn1-c1ccncc1NC(=O)c1nc(-c2ccc(CCNC(=O)OCc3ccccc3)cc2)cnc1N [Compound 143],> 7.30,< 6.00
NCCc1ccc(-c2cnc(N)c(C(=O)Nc3cncc(-c4cccc(N)c4)c3)n2)cc1 [Compound 149],7.00 to 7.30,< 6.00
COc1ccc(-c2cnc(N)c(C(=O)Nc3cnccc3N3CCOCC3)n2)c(OC)c1 [Compound 157],6.00 to 7.00,6.00 to 7.00
COc1ccc(-c2cnc(N)c(C(=O)Nc3cnccc3N3CCOCC3)n2)cc1OC [Compound 158],> 7.30,6.00 to 7.00
COc1ccc(OC)c(-c2cnc(N)c(C(=O)Nc3cnccc3N3CCOCC3)n2)c1 [Compound 159],6.00 to 7.00,6.00 to 7.00
Nc1ncc(-c2cc(Cl)ccc2Cl)nc1C(=O)Nc1cnccc1N1CCOCC1 [Compound 161],6.00 to 7.00,6.00 to 7.00
Nc1ncc(-c2ccc(O[C@@H]3CCN(C(=O)OCc4ccccc4)C3)cc2)nc1C(=O)Nc1cnccc1N1CCOCC1 [Compound 162],> 7.30,6.00 to 7.00
Nc1ncc(-c2ccc(O[C@@H]3CCCN(C(=O)OCc4ccccc4)C3)cc2)nc1C(=O)Nc1cnccc1N1CCOCC1 [Compound 163],6.00 to 7.00,6.00 to 7.00
Nc1ncc(-c2ccc(O[C@H]3CCN(C(=O)OCc4ccccc4)C3)cc2)nc1C(=O)Nc1cnccc1N1CCOCC1 [Compound 164],7.00 to 7.30,6.00 to 7.00
Nc1ncc(-c2ccc(O[C@H]3CCCN(C(=O)OCc4ccccc4)C3)cc2)nc1C(=O)Nc1cnccc1N1CCOCC1 [Compound 165],6.00 to 7.00,6.00 to 7.00
Nc1ncc(-c2ccc(OC3CCN(C(=O)OCc4ccccc4)CC3)cc2)nc1C(=O)Nc1cnccc1N1CCOCC1 [Compound 166],6.00 to 7.00,6.00 to 7.00
Nc1ncc(-c2ccc(O[C@@H]3CCCNC3)cc2)nc1C(=O)Nc1cnccc1N1CCOCC1 [Compound 168],> 7.30,7.00 to 7.30
Nc1ncc(-c2c(Cl)cccc2Cl)nc1C(=O)Nc1cnccc1N1CCOCC1 [Compound 173],< 6.00,6.00 to 7.00

SMILES,pIC50 (TGFBR2),pEC50 [1]
Nc1ncc(-c2cccc(CCNC(=O)OCc3ccccc3)c2)nc1C(=O)Nc1cnccc1N1CCOCC1 [Compound 177],7.00 to 7.30,6.00 to 7.00
Nc1ncc(-c2cccc(CCCNC(=O)OCc3ccccc3)c2)nc1C(=O)Nc1cnccc1N1CCOCC1 [Compound 178],> 7.30,6.00 to 7.00
Nc1ncc(-c2cccc3c2CCC3)nc1C(=O)Nc1cnccc1N1CCOCC1 [Compound 179],7.00 to 7.30,< 6.00
Nc1ncc(-c2ccccc2)nc1C(=O)Nc1cnccc1N1CCOCC1 [Compound 180],7.00 to 7.30,6.00 to 7.00
NCCOc1cccc(-c2cnc(N)c(C(=O)Nc3cnccc3N3CCOCC3)n2)c1 [Compound 184],> 7.30,6.00 to 7.00
Nc1ncc(-c2ccc3c(c2)CCC3)nc1C(=O)Nc1cnccc1N1CCOCC1 [Compound 185],> 7.30,6.00 to 7.00
Nc1ncc(Cc2ccccc2)nc1C(=O)Nc1cnccc1N1CCOCC1 [Compound 186],< 6.00,< 6.00
Nc1ncc(-c2ccc(CCNC(=O)OCc3ccccc3)cc2)nc1C(=O)Nc1cnccc1-n1cncn1 [Compound 188],> 7.30,< 6.00
CC(COc1cccc(-c2cnc(N)c(C(=O)Nc3cnccc3N3CCOCC3)n2)c1)NC(=O)OC(C)(C)C (stereo not drawn) [Compound 189],> 7.30,< 6.00
CC(CNC(=O)OC(C)(C)C)Oc1cccc(-c2cnc(N)c(C(=O)Nc3cnccc3N3CCOCC3)n2)c1 (stereo not drawn) [Compound 191],> 7.30,< 6.00
Nc1ncc(-c2ccc3c(c2)CCCN3)nc1C(=O)Nc1cnccc1N1CCOCC1 [Compound 193],> 7.30,7.00 to 7.30
CC(N)COc1cccc(-c2cnc(N)c(C(=O)Nc3cnccc3N3CCOCC3)n2)c1 (stereo not drawn) [Compound 194],> 7.30,6.00 to 7.00
COC(=O)[C@H](N)Cc1ccc(-c2cnc(N)c(C(=O)Nc3cnccc3N3CCOCC3)n2)cc1 [Compound 195],> 7.30,6.00 to 7.00
CC(C)(C)OC(=O)N[C@H](Cc1ccc(-c2cnc(N)c(C(=O)Nc3cnccc3N3CCOCC3)n2)cc1)C(=O)O [Compound 196],> 7.30,6.00 to 7.00
Nc1ncc(-c2ccc3c(c2)CCC(=O)N3)nc1C(=O)Nc1cnccc1N1CCOCC1 [Compound 198],7.00 to 7.30,6.00 to 7.00
Nc1ncc(-c2ccc3c(c2)CCNC3=O)nc1C(=O)Nc1cnccc1N1CCOCC1 [Compound 201],6.00 to 7.00,6.00 to 7.00
Nc1ncc(-c2ccc(C[C@@H](N)CO)cc2)nc1C(=O)Nc1cnccc1N1CCOCC1 [Compound 202],> 7.30,6.00 to 7.00

# Second part, the compound after the results:
pIC50 (TGFBR2),pEC50 [1],SMILES
< 6.00,< 6.00,NCCc1ccc(-c2cnc(N)c(C(=O)Nc3cnc(N)cc3N3CCOCC3)n2)cc1 [Compound 135]
> 7.30,< 6.00,NCCc1ccc(-c2cnc(N)c(C(=O)Nc3cnccc3-n3ccnc3)n2)cc1 [Compound 136]
> 7.30,6.00 to 7.00,NCCc1ccc(-c2cnc(N)c(C(=O)Nc3cncc(Cl)c3N3CCOCC3)n2)cc1 [Compound 139]
> 7.30,< 6.00,CCc1nccn1-c1ccncc1NC(=O)c1nc(-c2ccc(CCN)cc2)cnc1N [Compound 140]
> 7.30,< 6.00,Nc1ncc(-c2ccc(CCNC(=O)OCc3ccccc3)cc2)nc1C(=O)Nc1cncc(-c2ccccc2[N+](=O)[O-])c1 [Compound 144]
6.00 to 7.00,< 6.00,NCCc1ccc(-c2cnc(N)c(C(=O)Nc3cncc(-c4ccccc4N)c3)n2)cc1 [Compound 148]
6.00 to 7.00,< 6.00,COc1ccccc1-c1cnc(N)c(C(=O)Nc2cnccc2N2CCOCC2)n1 [Compound 150]
7.00 to 7.30,6.00 to 7.00,Nc1ncc(-c2ccccc2Cl)nc1C(=O)Nc1cnccc1N1CCOCC1 [Compound 151]
> 7.30,6.00 to 7.00,Nc1ncc(-c2cccc(Cl)c2)nc1C(=O)Nc1cnccc1N1CCOCC1 [Compound 152]
6.00 to 7.00,< 6.00,Nc1ncc(-c2ccc(Cl)cc2Cl)nc1C(=O)Nc1cnccc1N1CCOCC1 [Compound 153]
6.00 to 7.00,< 6.00,Nc1ncc(-c2ccc(Cl)c(Cl)c2)nc1C(=O)Nc1cnccc1N1CCOCC1 [Compound 154]
> 7.30,6.00 to 7.00,COc1cccc(-c2cnc(N)c(C(=O)Nc3cnccc3N3CCOCC3)n2)c1 [Compound 155]
> 7.30,6.00 to 7.00,COc1ccc(-c2cnc(N)c(C(=O)Nc3cnccc3N3CCOCC3)n2)cc1 [Compound 156]
> 7.30,6.00 to 7.00,Nc1ncc(-c2ccc(Cl)cc2)nc1C(=O)Nc1cnccc1N1CCOCC1 [Compound 160]
> 7.30,7.00 to 7.30,Nc1ncc(-c2ccc(OC3CCNCC3)cc2)nc1C(=O)Nc1cnccc1N1CCOCC1 [Compound 167]
> 7.30,7.00 to 7.30,Nc1ncc(-c2ccc(O[C@H]3CCCNC3)cc2)nc1C(=O)Nc1cnccc1N1CCOCC1 [Compound 169]
< 6.00,< 6.00,COc1cccc(OC)c1-c1cnc(N)c(C(=O)Nc2cnccc2N2CCOCC2)n1 [Compound 172]
> 7.30,6.00 to 7.00,Nc1ncc(-c2ccc3c(c2)CCCO3)nc1C(=O)Nc1cnccc1N1CCOCC1 [Compound 174]
6.00 to 7.00,6.00 to 7.00,NCc1cccc(-c2cnc(N)c(C(=O)Nc3cnccc3N3CCOCC3)n2)c1 [Compound 175]
> 7.30,6.00 to 7.00,Nc1ncc(-c2cccc(CNC(=O)OCc3ccccc3)c2)nc1C(=O)Nc1cnccc1N1CCOCC1 [Compound 176]
> 7.30,6.00 to 7.00,NCCc1cccc(-c2cnc(N)c(C(=O)Nc3cnccc3N3CCOCC3)n2)c1 [Compound 181]
> 7.30,6.00 to 7.00,NCCCc1cccc(-c2cnc(N)c(C(=O)Nc3cnccc3N3CCOCC3)n2)c1 [Compound 182]
> 7.30,6.00 to 7.00,CC(C)(C)OC(=O)NCCOc1cccc(-c2cnc(N)c(C(=O)Nc3cnccc3N3CCOCC3)n2)c1 [Compound 183]
> 7.30,6.00 to 7.00,NCCc1ccc(-c2cnc(N)c(C(=O)Nc3cnccc3-n3cncn3)n2)cc1 [Compound 187]
7.00 to 7.30,6.00 to 7.00,CC(CN)Oc1cccc(-c2cnc(N)c(C(=O)Nc3cnccc3N3CCOCC3)n2)c1 (stereo not drawn) [Compound 190]
> 7.30,6.00 to 7.00,COC(=O)[C@@H](Cc1ccc(-c2cnc(N)c(C(=O)Nc3cnccc3N3CCOCC3)n2)cc1)NC(=O)OC(C)(C)C [Compound 192]
6.00 to 7.00,< 6.00,Nc1ncc(-c2ccc(C[C@@H](N)C(=O)O)cc2)nc1C(=O)Nc1cnccc1N1CCOCC1 [Compound 197]
> 7.30,< 6.00,CC(C)(C)OC(=O)N[C@@H](CO)Cc1ccc(-c2cnc(N)c(C(=O)Nc3cnccc3N3CCOCC3)n2)cc1 [Compound 199]
> 7.30,< 6.00,COC(=O)[C@H](Cc1ccc(-c2cnc(N)c(C(=O)Nc3cnccc3N3CCOCC3)n2)cc1)NC(=O)OC(C)(C)C [Compound 200]

# — patent US20220362396A1, “AMINO-PYRAZINECARBOXAMIDE COMPOUNDS, CONJUGATES, AND USES THEREOF” (Silverback Therapeutics, Inc., priority 2018, published 2022)
